Measured values reported in patent US20050101595A1, “N-containing cycloalkyl-substituted amino-thiazole derivatives and pharmaceutical compositions for inhibiting cell proliferation and methods for their use” (PFIZER INC., priority 2003, published 2005).
Structures can show the parent of a compound that is named as a salt. Where two headings read alike, the source gives them in different places.

Assays:
[1] = molecular target: human CDK4 and genetically truncated (1-264) cyclin D3 (Homo sapiens, UniProt P11802); experiment: Inhibition of CDK4/Cyclin D Retinoblastoma Kinase Activity; type: biochemical; conditions: apparent Ki, CDK4/truncated cyclin D3, Rb fragment substrate, 25 μM ATP
Description: Cyclin-dependent kinase activity was measured by quantifying the enzyme-catalyzed, time-dependent incorporation of radioactive phosphate from [^32P]ATP or [^33P]ATP into a protein substrate. Unless noted otherwise, assays were performed in 96-well plates in a total volume of 50 μL, in the presence of 10 mM HEPES (N-[2-hydroxyethyl]piperazine-N′-[2-ethanesulfonic acid]) (pH 7.4), 10 mM MgCl2, 25 μM adenosine triphosphate (ATP), 1 mg/mL ovalbumin, 5 μg/mL leupeptin, 1 mM dithiothreitol, 10 mM β-glycerophosphate, 0.1 mM sodium vanadate, 1 mM sodium fluoride, 2.5 mM ethylene glycol-bis(β-aminoethyl ether)-N,N,N′N′-tetraacetic acid (EGTA), 2% (v/v) dimethylsulfoxide, and 0.03-0.4 μCi [^32/33P]ATP per reaction. Reactions were initiated with enzyme, incubated at 30° C., and terminated after 20 minutes by the addition of ethylenediaminetetraacetic acid (EDTA) to 250 mM. The phosphorylated substrate was then captured on a nitrocellulose or phosphocellulose membrane using a 96-well filtration manifold, and unincorporated radioactivity was removed by repeated washing with 0.85% phosphoric acid. Radioactivity was quantified by exposing the dried membranes to a phosphorimager.
Inhibition was measured relative to control wells that contained all reaction components including 2% (v/v) DMSO but no compound, after subtraction of background radioactivity measured in the absence of enzyme. Apparent Ki values of discrete compounds were measured by assaying enzyme activity in the presence of different inhibitor compound concentrations and subtracting the background radioactivity measured in the absence of enzyme. The kinetic parameters (kcat, Km for ATP) were measured for each enzyme under the usual assay conditions by determining the dependence of initial rates on ATP concentration. Inhibition data were fit to an equation for competitive inhibition using Kaleidagraph (Synergy Software), or were fit to an equation for competitive tight-binding inhibition using the software KineTic (BioKin, Ltd.).
Inhibition of CDK4/Cyclin D Retinoblastoma Kinase Activity:
A complex of human CDK4 and genetically truncated (1-264) cyclin D3 was purified using traditional biochemical chromatographic techniques from insect cells that had been co-infected with the corresponding baculovirus expression vectors (see e.g., Meijer and Kim, “Chemical Inhibitors of Cyclin-Dependent Kinases,” Methods in Enzymol,. vol. 283 (1997), pp. 113-128.). The enzyme complex (5 nM) was assayed with 0.3-0.5 μg of purified recombinant retinoblastoma protein fragment (Rb) as a substrate. The engineered Rb fragment (residues 386-928 of the native retinoblastoma protein; 62.3 kDa) contains the majority of the phosphorylation sites found in the native 106-kDa protein, as well as a tag of six histidine residues for ease of purification. Phosphorylated Rb substrate was captured by microfiltration on a nitrocellulose membrane and quantified using a phosphorimager as described above. For measurement of tight-binding inhibitors, the assay duration was extended to 60 minutes, during which the time-dependence of product formation was linear and initial rate conditions were met.

CDK2/Cyclin A = CDK2/Cyclin A (Homo sapiens, UniProt P24941); experiment: Inhibition of CDK2/Cyclin A Retinoblastoma Kinase Activity; type: biochemical; conditions: apparent Ki, CDK2/proteolyzed cyclin A, Rb fragment substrate, 25 μM ATP
In short: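 Baculovirus-expressed CDK2 complexed with proteolyzed cyclin A (10 or 19 nM), Rb fragment substrate, 25 μM [32P/33P]ATP, HEPES pH 7.4, 30 °C for 60 or 75 min under initial-rate conditions. Filter capture and phosphorimager readout; apparent Ki fitted to competitive or tight-binding competitive inhibition.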

HCT-116 cell line = experiment: Inhibition of cell growth, tetrazolium salt (MTT) assay; type: cell-based; conditions: Homo sapiens, HCT-116, 120 h, MTT, three to five days, read-out: HCT-116 IC50
In short: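 Growth inhibition is scored relative to cells receiving only 0.5% (v/v) DMSO. Plated cells rest 4 h, then take compound for three to five days at 37° C; MTT reduction to formazan is read at 540 nm.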

Sequence of human CDK4 and genetically truncated (1-264) cyclin D3 (P11802 whole entry, the tested form may be a part): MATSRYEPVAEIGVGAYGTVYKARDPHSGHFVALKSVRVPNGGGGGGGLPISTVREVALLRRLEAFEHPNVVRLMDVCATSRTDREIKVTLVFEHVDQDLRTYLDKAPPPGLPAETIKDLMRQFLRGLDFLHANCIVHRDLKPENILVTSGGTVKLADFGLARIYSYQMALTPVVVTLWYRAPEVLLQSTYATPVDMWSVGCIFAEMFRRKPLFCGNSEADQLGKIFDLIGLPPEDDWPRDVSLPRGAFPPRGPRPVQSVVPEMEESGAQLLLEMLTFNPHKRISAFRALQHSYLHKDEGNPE
Sequence of human CDK4 and genetically truncated (1-264) cyclin D3 (P30281 1-264 partner): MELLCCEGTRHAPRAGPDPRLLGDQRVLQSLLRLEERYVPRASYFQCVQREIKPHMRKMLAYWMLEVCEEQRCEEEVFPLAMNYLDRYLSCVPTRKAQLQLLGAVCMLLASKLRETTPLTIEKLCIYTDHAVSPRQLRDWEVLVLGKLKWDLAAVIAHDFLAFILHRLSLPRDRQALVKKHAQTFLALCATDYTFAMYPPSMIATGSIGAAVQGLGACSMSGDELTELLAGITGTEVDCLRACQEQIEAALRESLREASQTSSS

Compound | Ki [1] | Ki (CDK2/Cyclin A) | IC50 (HCT-116 cell line; first HCT-116 column (c4)) | IC50 (HCT-116 cell line; second HCT-116 column (c5))
Nc1nc(NC2CCN(S(=O)(=O)CCCN3CCC4CCCCC4C3)CC2)sc1C(=O)c1c(F)cccc1F (mixture of isomers) [Example K10, 1-(4-Amino-2-{1-[3-([cis/trans]-octahydro-1H-isoquinolin-2-yl)propane-1-sulfonyl]-piperidin-4-ylamino}-thiazol-5-yl)-1-(2,6-difluoro-phenyl)-methanone.] | 1.1 nM | 2.6 nM | 190 nM | 1300 nM
CC1CCC(C)N1CCS(=O)(=O)N1CCC(Nc2nc(N)c(C(=O)c3c(F)cccc3F)s2)CC1 (mixture of isomers) [Example K26, (4-Amino-2-{1-[2-(cis/trans-2,5-dimethyl-pyrrolidin-1-yl)-ethanesulfonyl]-piperidin-4-ylamino}-thiazol-5-yl)-(2,6-difluoro-phenyl)-methanone Trifluoroacetic Acid Salt.] | 2.1 nM | 13 nM | 190 nM | 800 nM
CC1C=CC(C)N1CCS(=O)(=O)N1CCC(Nc2nc(N)c(C(=O)c3c(F)cccc3F)s2)CC1 (mixture of isomers) [Example K27, (4-Amino-2-{1-[2-(cis/trans-2,5-dimethyl-2,5-dihydro-pyrrol-1-yl)-ethanesulfonyl]-piperidin-4-ylamino}-thiazol-5-yl)-(2,6-difluoro-phenyl)-methanone Trifluoroacetic Acid Salt.] | 3.5 nM | 11 nM | 230 nM | 800 nM
CC(C)NC(=O)N1CCC(Nc2nc(N)c(C(=O)c3c(F)cccc3F)s2)CC1 [Example B1, 4-[4-Amino-5-(2,6-difluoro-benzoyl)-thiazol-2-ylamino]-piperidine-1-carboxylic Acid Isopropylamide] | 380 nM | 410 nM |  | 
C[C@@H](NC(=O)N1CCC(Nc2nc(N)c(C(=O)c3c(F)cccc3F)s2)CC1)c1ccccc1 [Example B3, 4-[4-Amino-5-(2,6-difluoro-benzoyl)-thiazol-2-ylamino]-piperidine-1-carboxylic Acid (1R-Phenyl-ethyl)-amide] | 420 nM | 190 nM |  | 
COc1ccc(OC)c(NC(=O)N2CCC(Nc3nc(N)c(C(=O)c4c(F)cccc4F)s3)CC2)c1 [Example B4, 4-[4-Amino-5-(2,6-difluoro-benzoyl)-thiazol-2-ylamino]-piperidine-1-carboxylic Acid (2,5-Dimethoxy-phenyl)-amide] | 62 nM | 66 nM |  | 
Nc1nc(NC2CCN(C(=O)c3ccc(Br)cc3)C2)sc1C(=O)c1c(F)cccc1F (stereo not drawn) [Example C18, {4-Amino-2-[1-(4-bromo-benzoyl)-pyrrolidin-3-ylamino]-thiazol-5-yl}-(2,6-difluoro-phenyl)-methanone] | 210 nM | 77 nM |  | 
Cc1ccc(C(=O)/C=C/C(=O)N2CCC(Nc3nc(N)c(C(=O)c4c(F)cccc4F)s3)CC2)cc1 [Example D9, 1-{4-[4-Amino-5-(2,6-difluoro-benzoyl)-thiazol-2-ylamino]-piperidin-1-yl}-4-p-tolyl-but-2(E)-ene-1,4-dione] | 150 nM | 510 nM |  | 
COc1ccccc1/C=C\C(=O)N1CCC(Nc2nc(N)c(C(=O)c3c(F)cccc3F)s2)CC1 [Example D18, 1-{4-[4-Amino-5-(2,6-difluoro-benzoyl)-thiazol-2-ylamino]-piperidin-1-yl}3(Z)-(2-methoxy-phenyl)-propenone] | 18 nM | 54 nM |  | 
COc1ccc(Cl)cc1C(=O)N1CCC(Nc2nc(N)c(C(=O)c3c(F)cccc3F)s2)CC1 [Example D19, {4-Amino-2-[1-(5-chloro-2-methoxy-benzoyl)-piperidin-4-ylamino]-thiazol-5-yl}-(2,6-difluoro-phenyl)-methanone] | 79 nM | 105 nM |  | 
Nc1nc(NC2CCN(S(=O)(=O)CCCn3ccnn3)CC2)sc1C(=O)c1c(F)cccc1F [Example K3, 1-{4-Amino-2-[1-(3-triazol-1-yl-propane-1-sulfonyl)-piperidin-4-ylamino]-thiazol-5-yl}-1-(2,6-difluoro-phenyl)-methanone.] | 4 nM | 4.4 nM |  | 
Nc1nc(NC2CCN(S(=O)(=O)CCN3CCC(c4ccccc4)C3)CC2)sc1C(=O)c1c(F)cccc1F (stereo not drawn) [Example N5, (4-Amino-2-{1-[2-(3-phenyl-pyrrolidin-1-yl)-ethanesulfonyl]-piperidin-4-ylamino}-thiazol-5-yl)-(2,6-difluoro-phenyl)-methanone Hydrochloride Salt.] | 1.5 nM | 1.8 nM |  | 

The next lines start with the values.

Ki [1] | Ki (CDK2/Cyclin A) | IC50 (HCT-116 cell line; first HCT-116 column (c4)) | IC50 (HCT-116 cell line; second HCT-116 column (c5)) | Compound
22 nM | 14 nM |  |  | CN(C)S(=O)(=O)N1CCC(Nc2nc(N)c(C(=O)c3c(F)cccc3F)s2)CC1 [Example E1, 4-[4-Amino-5-(2,6-difluoro-benzoyl)-thiazol-2-ylamino]-piperidine-1-sulfonic acid dimethylamide]
2.5 nM | 1.7 nM |  |  | Nc1nc(NC2CCN(S(=O)(=O)c3ccc(Cl)nc3)CC2)sc1C(=O)c1c(F)cccc1F [Example F21, 1-(4-Amino-2-[1-(6-chloro-pyridine-3-sulfonyl)-piperidin-4-ylamino]-thiazol-5-yl}-1-(2,6-difluoro-phenyl)-methanone]
400 nM | 1000 nM |  |  | Nc1nc(NC2CCN(S(=O)(=O)c3ccc([N+](=O)[O-])cn3)CC2)sc1C(=O)c1c(F)cccc1F [Example F29, 1-{4-Amino-2-[1-(5-nitro-pyridine-2-sulfonyl)-piperidin-4-ylamino]-thiazol-5-yl}-1-(2,6-difluoro-phenyl)-methanone]
360 nM | 99 nM |  |  | N#Cc1ccc(S(=O)(=O)N2CCC(Nc3nc(N)c(C(=O)c4c(F)cccc4F)s3)C2)cc1 (stereo not drawn) [Example F38, 4-{3-[4-Amino-5-(2,6-difluoro-benzoyl)-thiazol-2-ylamino]-pyrrolidine-1-sulfonyl}-benzonitrile]
330 nM | 520 nM |  |  | CS(=O)(=O)N1CCC(Nc2nc(N)c(C(=O)c3c(F)cccc3F)s2)C1 (stereo not drawn) [Example F39, [4-Amino-2-(1-methanesulfonyl-pyrrolidin-3-ylamino)-thiazol-5-yl]-(2,6-difluoro-phenyl)-methanone]
380 nM | 58 nM |  |  | N#Cc1ccc(S(=O)(=O)N2CC[C@H](Nc3nc(N)c(C(=O)c4c(F)cccc4F)s3)C2)cc1 [Example F40, 4-{3S-[4-Amino-5-(2,6-difluoro-benzoyl)-thiazol-2-ylamino]-pyrrolidine-1-sulfonyl}-benzonitrile]
1600 nM | 750 nM |  |  | CS(=O)(=O)N1CC[C@H](Nc2nc(N)c(C(=O)c3c(F)cccc3F)s2)C1 [Example F41, [4-3S-Amino-2-(1-methanesulfonyl-pyrrolidin-3-ylamino)-thiazol-5-yl]-(2,6-difluoro-phenyl)-methanone]
1.1 nM | 0.46 nM |  |  | Nc1nc(NC2CCN(S(=O)(=O)c3cncc(Cl)n3)CC2)sc1C(=O)c1c(F)cccc1F [Example F49, {4-Amino-2-[1-(6-chloro-pyrazine-2-sulfonyl)-piperidin-4-ylamino]-thiazol-5-yl}-(2,6-difluoro-phenyl)-methanone]
0.45 nM | 0.31 nM |  |  | Nc1nc(NC2CCN(S(=O)(=O)c3ccc(-n4ccnc4)cc3)CC2)sc1C(=O)c1c(F)cccc1F [Example G30, 1-{4-Amino-2-[1-(4-imidazol-1-yl-benzenesulfonyl)-piperidin-4-ylamino]-thiazol-5-yl}-1-(2,6-difluoro-phenyl)-methanone]
